{"source": "PubChem BioAssay AID1963983", "about": "(Molecular Pharmacology Branch, DTP, NCI, 2024);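 note: spheroids exposed to compounds for seven days before viability reading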;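 for viability, T/C: 100% = DMSO vehicle control viability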", "system": "186277-243-T-J2-PDC multi-cell spheroid viability", "assay": "Anticancer human tumor 186277-243-T-J2-PDC patient-derived colon adenocarcinoma cell line growth inhibition [PI3K]", "details": "for IC50: curve of first compound; for viability, T/C: stronger effect = lower value", "summary_of_the_method": "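Multi-cell spheroids combine tumor cells with HUVEC and human MSCs, treated with targeted agents alone or with inavolisib, alpelisib, duvelisib or copanlisib. Concentrations fall in half-log steps from at or near clinical Cmax, or from 10 microM where Cmax is unknown; viability read-out.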", "key": {"[1]": {"details": "second compound 0.0316 µM, first compound 0.0316 µM"}, "[2]": {"details": "second compound 0.0316 µM, first compound 0.1 µM"}, "[3]": {"details": "second compound 0.0316 µM, first compound 0.316 µM"}, "[4]": {"details": "second compound 0.0316 µM, first compound 1 µM"}, "[5]": {"details": "second compound 0.0316 µM, first compound 3.16 µM"}, "[6]": {"details": "second compound 0.0316 µM, first compound 10 µM"}, "[7]": {"details": "second compound 0.1 µM, first compound 0.0316 µM"}, "[8]": {"details": "second compound 0.1 µM, first compound 0.1 µM"}, "[9]": {"details": "second compound 0.1 µM, first compound 0.316 µM"}, "[10]": {"details": "second compound 0.1 µM, first compound 1 µM"}, "[11]": {"details": "second compound 0.1 µM, first compound 3.16 µM"}, "[12]": {"details": "second compound 0.1 µM, first compound 10 µM"}, "[13]": {"details": "second compound 0.316 µM, first compound 0.0316 µM"}, "[14]": {"details": "second compound 0.316 µM, first compound 0.1 µM"}, "[15]": {"details": "second compound 0.316 µM, first compound 0.316 µM"}, "[16]": {"details": "second compound 0.316 µM, first compound 1 µM"}, "[17]": {"details": "second compound 0.316 µM, first compound 3.16 µM"}, "[18]": {"details": "second compound 0.316 µM, first compound 10 µM"}, "[19]": {"details": "second compound 1 µM, first compound 0.0316 µM"}, "[20]": {"details": "second compound 1 µM, first compound 0.1 µM"}, "[21]": {"details": "second compound 1 µM, first compound 0.316 µM"}, "[22]": {"details": "second compound 1 µM, first compound 1 µM"}, "[23]": {"details": "second compound 1 µM, first compound 3.16 µM"}, "[24]": {"details": "second compound 1 µM, first compound 10 µM"}}}
{"smiles": "Cn1ncc(Cl)c1-c1cc(C(=O)NC(CN)Cc2cccc(F)c2)sc1Cl", "note": "(centres undefined) + COc1c(OCCCN2CCOCC2)ccc2c3n(c(=NC(=O)c4cnc(N)nc4)nc12)CCN3", "values": [{"measurement": "IC50", "setting": "second compound 0.00316 µM", "value": 224, "unit": "nM"}, {"measurement": "IC50", "setting": "second compound 0.01 µM", "value": 225, "unit": "nM"}, {"measurement": "IC50", "setting": "second compound 0.0316 µM", "value": 46.8, "unit": "nM"}, {"measurement": "IC50", "setting": "second compound 0.1 µM", "value": "< 31.6", "unit": "nM"}, {"measurement": "IC50", "setting": "second compound 0.316 µM", "value": "< 31.6", "unit": "nM"}, {"measurement": "IC50", "setting": "second compound 1 µM", "value": "< 31.6", "unit": "nM"}, {"measurement": "viability, T/C", "setting": "second compound 0.00316 µM, first compound 0.0316 µM", "value": 93, "unit": "%"}, {"measurement": "viability, T/C", "setting": "second compound 0.00316 µM, first compound 0.1 µM", "value": 63.4, "unit": "%"}, {"measurement": "viability, T/C", "setting": "second compound 0.00316 µM, first compound 0.316 µM", "value": 42.9, "unit": "%"}, {"measurement": "viability, T/C", "setting": "second compound 0.00316 µM, first compound 1 µM", "value": 30.4, "unit": "%"}, {"measurement": "viability, T/C", "setting": "second compound 0.00316 µM, first compound 3.16 µM", "value": 20.4, "unit": "%"}, {"measurement": "viability, T/C", "setting": "second compound 0.00316 µM, first compound 10 µM", "value": 9.36, "unit": "%"}, {"measurement": "viability, T/C", "setting": "second compound 0.01 µM, first compound 0.0316 µM", "value": 86.4, "unit": "%"}, {"measurement": "viability, T/C", "setting": "second compound 0.01 µM, first compound 0.1 µM", "value": 71.8, "unit": "%"}, {"measurement": "viability, T/C", "setting": "second compound 0.01 µM, first compound 0.316 µM", "value": 38.2, "unit": "%"}, {"measurement": "viability, T/C", "setting": "second compound 0.01 µM, first compound 1 µM", "value": 23.1, "unit": "%"}, {"measurement": "viability, T/C", "setting": "second compound 0.01 µM, first compound 3.16 µM", "value": 14.4, "unit": "%"}, {"measurement": "viability, T/C", "setting": "second compound 0.01 µM, first compound 10 µM", "value": 4.57, "unit": "%"}, {"measurement": "viability, T/C", "setting": "[1]", "value": 58.3, "unit": "%"}, {"measurement": "viability, T/C", "setting": "[2]", "value": 33.6, "unit": "%"}, {"measurement": "viability, T/C", "setting": "[3]", "value": 23.5, "unit": "%"}, {"measurement": "viability, T/C", "setting": "[4]", "value": 13.7, "unit": "%"}, {"measurement": "viability, T/C", "setting": "[5]", "value": 10.4, "unit": "%"}, {"measurement": "viability, T/C", "setting": "[6]", "value": 2.08, "unit": "%"}, {"measurement": "viability, T/C", "setting": "[7]", "value": 21.1, "unit": "%"}, {"measurement": "viability, T/C", "setting": "[8]", "value": 13.3, "unit": "%"}, {"measurement": "viability, T/C", "setting": "[9]", "value": 8.18, "unit": "%"}, {"measurement": "viability, T/C", "setting": "[10]", "value": 6.79, "unit": "%"}, {"measurement": "viability, T/C", "setting": "[11]", "value": 6.13, "unit": "%"}, {"measurement": "viability, T/C", "setting": "[12]", "value": 1.39, "unit": "%"}, {"measurement": "viability, T/C", "setting": "[13]", "value": 4.19, "unit": "%"}, {"measurement": "viability, T/C", "setting": "[14]", "value": 4.53, "unit": "%"}, {"measurement": "viability, T/C", "setting": "[15]", "value": 2.93, "unit": "%"}, {"measurement": "viability, T/C", "setting": "[16]", "value": 5.08, "unit": "%"}, {"measurement": "viability, T/C", "setting": "[17]", "value": 3.95, "unit": "%"}, {"measurement": "viability, T/C", "setting": "[18]", "value": 0.44, "unit": "%"}, {"measurement": "viability, T/C", "setting": "[19]", "value": 2.43, "unit": "%"}, {"measurement": "viability, T/C", "setting": "[20]", "value": 1.6, "unit": "%"}, {"measurement": "viability, T/C", "setting": "[21]", "value": 2.02, "unit": "%"}, {"measurement": "viability, T/C", "setting": "[22]", "value": 1.95, "unit": "%"}, {"measurement": "viability, T/C", "setting": "[23]", "value": 1.4, "unit": "%"}, {"measurement": "viability, T/C", "setting": "[24]", "value": 0.21, "unit": "%"}]}
{"smiles": "CCCS(=O)(=O)Nc1ccc(F)c(C(=O)c2c[nH]c3ncc(-c4ccc(Cl)cc4)cc23)c1F", "note": "+ Cc1nc(NC(=O)N2CCCC2C(N)=O)sc1-c1ccnc(C(C)(C)C(F)(F)F)c1", "values": [{"measurement": "IC50", "setting": "second compound 0.0316 µM", "value": 5420, "unit": "nM"}, {"measurement": "IC50", "setting": "second compound 0.1 µM", "value": 5410, "unit": "nM"}, {"measurement": "IC50", "setting": "second compound 0.316 µM", "value": 4750, "unit": "nM"}, {"measurement": "IC50", "setting": "second compound 1 µM", "value": 4850, "unit": "nM"}, {"measurement": "IC50", "setting": "second compound 3.16 µM", "value": 4260, "unit": "nM"}, {"measurement": "IC50", "setting": "second compound 10 µM", "value": "< 31.6", "unit": "nM"}, {"measurement": "viability, T/C", "setting": "[1]", "value": 88.2, "unit": "%"}, {"measurement": "viability, T/C", "setting": "[2]", "value": 76.7, "unit": "%"}, {"measurement": "viability, T/C", "setting": "[3]", "value": 88.5, "unit": "%"}, {"measurement": "viability, T/C", "setting": "[4]", "value": 89.2, "unit": "%"}, {"measurement": "viability, T/C", "setting": "[5]", "value": 89, "unit": "%"}, {"measurement": "viability, T/C", "setting": "[6]", "value": 8.5, "unit": "%"}, {"measurement": "viability, T/C", "setting": "[7]", "value": 98.1, "unit": "%"}, {"measurement": "viability, T/C", "setting": "[8]", "value": 105, "unit": "%"}, {"measurement": "viability, T/C", "setting": "[9]", "value": 89.6, "unit": "%"}, {"measurement": "viability, T/C", "setting": "[10]", "value": 94.9, "unit": "%"}, {"measurement": "viability, T/C", "setting": "[11]", "value": 87.2, "unit": "%"}, {"measurement": "viability, T/C", "setting": "[12]", "value": 7.3, "unit": "%"}, {"measurement": "viability, T/C", "setting": "[13]", "value": 113, "unit": "%"}, {"measurement": "viability, T/C", "setting": "[14]", "value": 103, "unit": "%"}, {"measurement": "viability, T/C", "setting": "[15]", "value": 89.2, "unit": "%"}, {"measurement": "viability, T/C", "setting": "[16]", "value": 88, "unit": "%"}, {"measurement": "viability, T/C", "setting": "[17]", "value": 78.7, "unit": "%"}, {"measurement": "viability, T/C", "setting": "[18]", "value": 7.15, "unit": "%"}, {"measurement": "viability, T/C", "setting": "[19]", "value": 95.8, "unit": "%"}, {"measurement": "viability, T/C", "setting": "[20]", "value": 104, "unit": "%"}, {"measurement": "viability, T/C", "setting": "[21]", "value": 98.5, "unit": "%"}, {"measurement": "viability, T/C", "setting": "[22]", "value": 91.9, "unit": "%"}, {"measurement": "viability, T/C", "setting": "[23]", "value": 76.5, "unit": "%"}, {"measurement": "viability, T/C", "setting": "[24]", "value": 6.14, "unit": "%"}, {"measurement": "viability, T/C", "setting": "second compound 3.16 µM, first compound 0.0316 µM", "value": 67.6, "unit": "%"}, {"measurement": "viability, T/C", "setting": "second compound 3.16 µM, first compound 0.1 µM", "value": 81.6, "unit": "%"}, {"measurement": "viability, T/C", "setting": "second compound 3.16 µM, first compound 0.316 µM", "value": 81.1, "unit": "%"}, {"measurement": "viability, T/C", "setting": "second compound 3.16 µM, first compound 1 µM", "value": 82, "unit": "%"}, {"measurement": "viability, T/C", "setting": "second compound 3.16 µM, first compound 3.16 µM", "value": 65.6, "unit": "%"}, {"measurement": "viability, T/C", "setting": "second compound 3.16 µM, first compound 10 µM", "value": 5.53, "unit": "%"}, {"measurement": "viability, T/C", "setting": "second compound 10 µM, first compound 0.0316 µM", "value": 15.2, "unit": "%"}, {"measurement": "viability, T/C", "setting": "second compound 10 µM, first compound 0.1 µM", "value": 17.1, "unit": "%"}, {"measurement": "viability, T/C", "setting": "second compound 10 µM, first compound 0.316 µM", "value": 26.6, "unit": "%"}, {"measurement": "viability, T/C", "setting": "second compound 10 µM, first compound 1 µM", "value": 35.3, "unit": "%"}, {"measurement": "viability, T/C", "setting": "second compound 10 µM, first compound 3.16 µM", "value": 38.8, "unit": "%"}, {"measurement": "viability, T/C", "setting": "second compound 10 µM, first compound 10 µM", "value": 2.29, "unit": "%"}]}
